Test results reported in patent US11413254B2, “Application for (2R, 4R)-1,2,4-trihydroxyheptadec-16-yne in preparation of pharmaceutical composition for preventing or treating hepatic injury” (KAOHSIUNG MEDICAL UNIVERSITY, priority 2016, dated 2022).

What was measured:
[1] = test system: fatty acid liver disease caused by high fat feed; test: Chronic hepatitis of fatty acid liver disease caused by high fat feed, serum liver function indicators; assay type: in vivo, C57BL/6 (B6) mice; settings: male B6 mice, 100 mg/kg/day TY force fed, high fat feed (60% fat calorie) 18 weeks
Procedure: Example 5. Chronic hepatitis of fatty acid liver disease caused by high fat feed was treated by TY. 15 male, 8-10 weeks old of C57BL/6 (B6) mice (20-22 g) were randomly divided into 3 groups, 4-5 B6 mice in each group, they were: 1. Healthy control group: fed with normal feed (the percentage of fat calories 5-6%); 2. Negative control group: fed with high fat feed (the percentage of fat calorie 60%) and physiological saline; 3. Experimental group: animals were given the same high fat feed as the Negative control group and force fed with 100 mg/kg/day of TY. 1 week before liver injury was induced by high fat feed, the experimental samples began to be given daily, respectively, drug solvent of the same volume as TY to Groups 1 and 2, and 100 mg/kg/daily of TY to Group 3. After 1 week, Groups 2 and 3 began to be given high fat feed, and continuously to be force fed with the drug solvent of the volume same as TY and 100 mg/kg/day of TY for 18 weeks. The mice began to fast on the 18th week, and 12 hours after fasting, all B6 mice were sacrificed. Prior to being sacrificed, blood was collected from the heart and serum was separated for analysis of the biochemical function of the liver.

[2] = test system: hepatocellular injury and abnormalities caused by alcohol (ethanol); test: Hepatocellular injury and abnormalities caused by alcohol (ethanol), liver H&E staining; assay type: in vivo; settings: male Wistar rats, 100 mg/kg/day TY force fed, 50% ethanol, FIG. 4
Procedure: Example 4. Hepatocellular injury and abnormalities caused by alcohol (ethanol) were treated by TY. Nine male Wistar rats (200-250 g) were randomly divided into 3 groups, 3 Wistar rats in each group, they were: 1. Healthy control group: force fed with drug solvent of the same volume as TY and force fed with physiological saline (2.5 mg/kg); 2. Negative control group (ethanol and physiological saline): force fed with physiological saline of the same volume as TY and force fed with 50% ethanol; 3. Experimental group (Ethanol and 100 mg/kg/day of TY): force fed 100 mg/kg/day of TY and force fed with 50% ethanol. First, food solvent or TY was administered by force feeding once daily, and the first force feeding was defined as the first day. One hour after force feeding on the fourth day, Group 1 was given physiological saline (2.5 mg/kg), Groups 2-3 were given 50% ethanol injection (2.5 mg/kg), respectively. The rats were force fed with ethanol again 12 hours after the first force feeding, and fasted 12 hours after the second force feeding. After being fasted for 12 hours, all Wistar rats were sacrificed. After the rats were sacrificed, livers were collected and soaked in formalin, and stained with H&E staining, then observed and images taken with a microscope.

[3] = test system: hepatocellular injury and necrosis caused by carbon tetrachloride; test: Hepatocellular injury and necrosis caused by carbon tetrachloride, liver H&E staining; assay type: in vivo; settings: male Wistar rats, 100 mg/kg/day TY force fed, 20% carbon tetrachloride/olive oil i.p., FIG. 2
Procedure: Example 2. Hepatocellular injury and necrosis caused by carbon tetrachloride were treated by TY. Nine male Wistar rats (200-250 g) were randomly divided into 3 groups, 3 Wistar rats in each group, they were: 1. Healthy control group: force fed with drug solvent of the same volume as TY and intraperitoneal injection of olive oil (2.5 mg/kg); 2. Negative control group (carbon tetrachloride and physiological saline): force fed with physiological saline and intraperitoneal injection of 20% carbon tetrachloride/olive oil of the same volume as TY; 3. Experimental group (carbon tetrachloride and 100 mg/kg/day of TY): force fed 100 mg/kg/day of TY and intraperitoneal injection of 20% carbon tetrachloride/olive oil. First, the physiological saline or TY was administered by force feeding once daily, and the first force feeding was defined as the first day. One hour after the force feeding on the fourth day, Group 1 was given intraperitoneal injection of olive oil (2.5 mg/kg), Groups 2-3 were given intraperitoneal injection of 20% carbon tetrachloride/olive oil (2.5 mg/kg), respectively. The rats were fasted 12 hours after injection, all Wistar rats were sacrificed 12 hours after fasting. After the rats were sacrificed, livers were collected and soaked in formalin, and stained with H&E staining, then observed and images were taken with a microscope.

[4] = test system: fatty acid disease induced by high fat feed; test: Hepatocellular injury and abnormalities of fatty acid disease induced by high fat feed, liver H&E staining; assay type: in vivo, C57BL/6 (B6) mice; settings: male B6 mice, 100 mg/kg/day TY force fed, high fat feed (60% fat calorie) 18 weeks, FIG. 7
Procedure: Example 7. Hepatocellular injury and abnormalities of fatty acid disease induced by high fat feed were treated with TY. 15 male, 8-10 weeks old of C57BL/6 (B6) mice (20-22 g) were randomly divided into 3 groups, and 4-5 B6 mice in each group, they were: 1. Healthy control group: fed with normal feed (the percentage of fat calories 5-6%); 2. Negative control group: fed with high fat feed (the percentage of fat calorie 60%) and force fed with physiological saline; 3. Experimental group: animals were given the same high fat feed as the Negative control group and force fed with 100 mg/kg/day of TY (high fat feed and TY). 1 week before liver injury was induced by the high fat feed, the experimental samples began to be given daily, respectively, the drug solvent of the same volume as TY to Groups 1 and 2, and 100 mg/kg of TY daily to Group 3. After 1 week, Groups 2 and 3 began to be given high fat feed, and continuously to be force fed with the drug solvent of the same volume as TY and 100 mg/kg/day of TY for 18 weeks. The mice began to fast on the 18th week, and 12 hours after fasting, all B6 mice were sacrificed. After the mice were sacrificed, livers were collected and soaked in formalin, stained with H&E staining, and then observed and images taken with a microscope.

[5] = test system: fatty acid liver disease induced by high fat feed; test: Serum triglyceride level of mice with fatty acid liver disease induced by high fat feed; assay type: in vivo, C57BL/6 (B6) mice; settings: male B6 mice, 100 mg/kg/day TY force fed, high fat feed (60% fat calorie) 18 weeks, FIG. 6
Description: Example 6. TY decreased serum triglyceride level of the mice with fatty acid liver disease induced by high fat feed. 15 male, 8-10 weeks old of C57BL/6 (B6) mice (20-22 g) were randomly divided into 3 groups, 4-5 B6 mice in each group, and they were: 1. Healthy control group: fed with normal feed (the percentage of fat calories 5-6%); 2. Negative control group: fed with high fat feed (the percentage of fat calorie 60%) and force fed with physiological saline (high fat feed and physiological saline); 3. Experimental group: animals were given the same high fat feed as the Negative control group and force fed with 100 mg/kg/day of TY (high fat feed and TY). 1 week before liver injury was induced by the high fat feed, the experimental samples began to be given daily, respectively, drug solvent of the same volume as TY to Groups 1 and 2, and 100 mg/kg of TY daily to Group 3. after 1 week, Groups 2 and 3 began to be given high fat feed, and continuously to be force fed with the drug solvent of the same volume as TY and 100 mg/kg/day of TY for 18 weeks. The mice began to fast on the 18th week, and 12 hours after fasting, all B6 mice were sacrificed. Prior to being sacrificed, blood was collected from the heart and serum was separated for analysis of the serum triglyceride level.

[6] = test system: acute hepatitis caused by alcohol (ethanol); test: Acute hepatitis caused by alcohol (ethanol), serum liver function indicators; assay type: in vivo; settings: male Wistar rats, 100 mg/kg/day TY force fed, 50% ethanol
Procedure: Example 3. The effect of TY on the treatment of acute hepatitis caused by alcohol (ethanol). Nine male Wistar rats (200-250 g) were randomly divided into 3 groups, 3 Wistar rats in each group, they were: 1. Healthy control group: force fed with physiological saline (2.5 mg/kg) of the same volume as TY; 2. Negative control group (ethanol and physiological saline): force fed with physiological saline of the same volume as TY and force fed with 50% ethanol; 3. Experimental group (ethanol and 100 mg/kg/day of TY): force fed 100 mg/kg/day of TY and force fed with 50% ethanol. First, the drug solvent or TY was administered by force feeding once daily, and the first force feeding was defined as the first day. One hour after force feeding on the fourth day, Group 1 was given physiological saline (2.5 mg/kg), Groups 2-3 were given […] 50% ethanol (2.5 mg/kg), respectively. The rats were force fed with ethanol again 12 hours after the first force feeding, and fasted 12 hours after the second force feeding. After being fasted for 12 hours, all Wistar rats were sacrificed. Prior to being sacrificed, blood was collected from the heart and serum was separated for analysis of the biochemical function of the liver.

[7] = test system: acute hepatitis caused by carbon tetrachloride; test: Acute hepatitis caused by carbon tetrachloride, serum liver function indicators; assay type: in vivo; settings: male Wistar rats, 100 mg/kg/day TY force fed, 20% carbon tetrachloride/olive oil i.p. on fourth day
Procedure: Example 1. The effect of TY for the treatment of acute hepatitis caused by carbon tetrachloride was tested. Nine male Wistar rats (200-250 g) were randomly divided into 3 groups, 3 Wistar rats in each group, they were: 1. Healthy control group: force fed with drug solvent and intraperitoneal injection of olive oil (2.5 mg/kg) of the same volume as TY; 2. Negative control group (carbon tetrachloride and physiological saline): force fed with physiological saline and intraperitoneal injection of 20% carbon tetrachloride/olive oil of the same volume as TY; 3. Experimental group (carbon tetrachloride and 100 mg/kg/day of TY): force fed 100 mg/kg/day of TY and intraperitoneal injection of 20% carbon tetrachloride/olive oil. First, the drug solvent or TY was administered by force feeding once daily and the first force feeding was defined as the first day. One hour after force feeding on the fourth day, Group 1 was given intraperitoneal injection of olive oil (2.5 mg/kg), Groups 2-3 were given intraperitoneal injection of 20% carbon tetrachloride/olive oil (2.5 mg/kg), fasted 12 hours after injection, all Wistar rats were sacrificed 12 hours after fasting. Prior to being sacrificed, blood was collected from the heart and serum was separated for analysis of the biochemical function of the liver.

SMILES: C#CCCCCCCCCCCC[C@@H](O)C[C@@H](O)CO [TY, (2R,4R)-1,2,4-trihydroxy heptadec-16-yne]
- liver function indicator GOT/AST increased by the high-fat feed ([1]; FIG. 5A): significantly decreased
- liver function indicator GPT/ALT increased by the high-fat feed ([1]; FIG. 5B): significantly decreased
- liver injury and tissue abnormalities caused by ethanol (H&E staining) [2]: capable of reducing the liver injury and tissue abnormalities
- hepatocellular necrosis near the central vein caused by carbon tetrachloride (H&E staining) [3]: capable of effectively reducing hepatocellular necrosis near the central vein
- liver injury and tissue abnormalities caused by the high fat feed (H&E staining) [4]: capable of reducing the liver injury and tissue abnormalities
- serum triglyceride level increased by the high-fat diet [5]: significantly decreased
- liver function indicator GOT/AST increased by ethanol ([6]; FIG. 3A): significantly decreased
- liver function indicator GPI/ALT increased by ethanol ([6]; FIG. 3B): significantly decreased
- liver function indicator GOT/AST increased by carbon tetrachloride ([7]; FIG. 1A): significantly decreased
- liver function indicator GPI/ALT increased by carbon tetrachloride ([7]; FIG. 1B): significantly decreased
